Experimental data reported in patent US10076511B2, “Bisamide derivative of dicarboxylic acid as an agent for stimulating tissue regeneration and recovery of diminished tissue function” (TREAMID GmbH, priority 2015, dated 2018).

Assays:
male C57BL/6 mice [1] = assay: Cachexia induced by Lewis lung carcinoma; format: in vivo, mouse; conditions: Day 28; Treamid 10 mg/kg intragastrically from Day 15
Procedure: Cachexia developed in male C57Bl/6 mice when simulating hematogenously metastasizing Lewis lung carcinoma (LLC). Tumor cells were injected once subcutaneously into the mice at a concentration of 5×10^6 in 0.1 ml of physiological saline (Yu-Chou T., Samuel K. K., I-Lu L. et al. Preclinical Investigation of the Novel Histone Deacetylase Inhibitor AR-42 in the Treatment of Cancer-Induced Cachexia//JNCI J Natl Cancer Inst (2015) 107(12)).
The day of the injection of tumor cells was taken as Day 1 of the experiment. Treamid was administered at a dose of 10 mg/kg intragastrically once daily, every day from Day 15 to […]. The animals were weighed one day before the introduction of tumor cells (Day 0) and on Day 28 of the experiment. On Day 28, the animals were euthanized in a CO2 chamber, and blood was collected. The level of free testosterone was determined in the blood serum by enzyme immunoassay.

male rats = assay: Morphological and functional state of spermatogenic tissue after Paclitaxel; format: in vivo, rat
Procedure: The latter was simulated by a single injection of cytostatic drug Paclitaxel (Mitotax, Dr. Reddy's, India) to male rats (3 months of age). The choice of the drug was due to the fact that it is one of the medications that damage the precursors of spermatogenesis—stem cells.
Paclitaxel was administered to the animals of the control and test groups once intravenously at the maximum tolerated dose of 7.6 mg/kg. Treamid was administered to the animals of the experimental groups intragastrically at a dose of 5 mg/kg in the form of a suspension in 2% starch mucus for 15 days a month after the administration of Paclitaxel. The control animals received an equivalent volume of the solvent (2% starch mucus), instead of the test compound.
Morphological and functional state of the spermatogenic tissue was assessed to obtain an additional confirmation of the efficiency to stimulate the formation of committed stem cells.
It was estimated by the following indices: the number of cells in the spermatogonial population, the average number of Sertoli cells, the degree of maturity of the spermatogenic layer, the number of Leydig cells, the endocrine activity of the testis, the total number of sperm cells per epididymis, and the percentage of motile sperm forms. For this, in euthanasia on Day 45, Day 65, and Day 90 of the experiment, the tail part of epididymis and testis were isolated at dissection. The epididymis of one testis was homogenized in a warm (37° C.) physiological saline, and the number of motile sperm forms was determined in the suspension of the epididymis cells. The total number of sperm cells per epididymis (TNS) was calculated by using a homogenized cell suspension of the second epididymis in a dosage amount of physiological saline using a leukocyte-count pipette and Goryaev chamber.
A morphological assay of the testes of rats was performed by fixation thereof in Carnoy's fluid and by preparing paraffin sections. Deparaffined sections of a thickness of 5 μm were stained with hematoxylin-eosin. The number of cells in the spermatogonial population, the number of Sertoli cells, and the number of Leydig cells were counted on the testis section, and the endocrine activity of Leydig cells was determined. The degree of maturity of the spermatogenic layer was calculated based on the count of Sertoli cells. The calculation was carried out according to the formula for the experimental groups: y=5.95-0.18x; for the group of intact animals: y=6.7-0.23x, where x is the average number of Sertoli cells in the cross-section of the convoluted seminiferous tubule, and y is the index characterizing the degree of maturity of the spermatogenic layer. When choosing the time for studies, the duration of spermatogenesis in rats was taken into account, which was one and a half months. The duration of 45 and 65 days after administration of Paclitaxel corresponds to the manifestation of effects on the spermatogonial cell population.
The criteria for stimulation of the process of regeneration of the testicular tissue were: an increase in the number of cells in the spermatogonial populations, the number of Sertoli cells, a decrease in the degree of maturity of the spermatogenic layer, and an increase in the productivity of spermatogenesis. The criterion of the functional activity of sperm cells is the percentage of their motile forms.

male C57BL/6 mice [2] = assay: Metabolic syndrome model in mice (streptozotocin + high-fat diet): pancreas, glucose, testosterone; format: in vivo, mouse
Procedure: Metabolic disorders were simulated as follows: on Day 2 after birth, male C57Bl/6 mice were injected with streptozotocin at a dose of 200 mg/kg once, subcutaneously in the withers area, and the volume of the injected solution was 30 μl. From week 4 after birth, the animals were transferred to a diet high in fat. For this purpose, the used feed was enriched with heavy saturated fats (30% fat) (Siff EF R/M with 30% Fat Cat No. E15116-34, Germany). The duration of feeding with a high-fat feed was 42 days (from Day 28 to Day 70 of the experiment). […] The control animals received the equivalent volume of a solvent (2% starch mucus), instead of the test compound.
On Days 28, 35, 42, 49, 56, 63, and 70 of the study, blood glucose was determined. The blood glucose level was determined with a glucometer meter (Accu-Chek Performs Nanu (“Roche Diagnostes GmbH”, Germany). Blood glucose was measured in animals after 16-hour feed deprivation; all subsequent measurements of the glucose level were also performed after 16-hour feed deprivation.
On Day 70 day, animals were euthanized in a CO2 chamber. Then, the serum free testosterone level was studied, and the morphological examination of the pancreas was performed.
The level of free testosterone in the serum was evaluated by enzyme immunoassay according to the protocol of manufacturer's test system.
For morphological study, a part of the pancreas adjacent to the spleen was fixed in 10% formalin and poured into paraffin according to the standard method.
Deparaffined sections of the gland were stained with hematoxylin and eosin. On the sections, the area of 10 serial islets of Langerhans was determined by graphic computer analysis, and the total number of cells and the number of pyknotized cells were counted therein. Then, the number of cells per unit islet area and the percentage of the pyknotized cells were calculated. Inflammatory cells (neutrophils, lymphocytes, macrophages) in the pancreatic tissue and their composition were studied by staining of the histological sections with hematoxylin-eosin.

[3] = Day 45 after Paclitaxel, Treamid 5 mg/kg
[4] = Day 65 after Paclitaxel, Treamid 5 mg/kg
[5] = Day 90 after Paclitaxel, Treamid 5 mg/kg
[6] = Day 70, Treamid (1 mg/kg), n = 8

Q: Which Body weight, including the subtraction of the tumor weight (male C57BL/6 mice [1]) does the source give for O=C(CCCC(=O)NCCc1ncc[nH]1)NCCc1ncc[nH]1 [Treamid] here?
A: Its Body weight, including the subtraction of the tumor weight is 23.8 ± 0.57 g.

Q: And the “The free testosterone level (pg/ml) in the blood serum” value (male C57BL/6 mice [1])?
A: The value was 3.2 ± 0.3*• pg/ml.

Q: What about the “Number of motile sperm cells (%)” value (male rats; [3]) of the same compound?
A: Its value is 71.57 ± 3.19 %.

Q: And the “The average number of Sertoli cells (abs.)” value (male rats; [3])?
A: Its value is 1.61 ± 0.03 abs.

Q: What about the “The average number of spermatogonia (abs.)” value (male rats; [3]) of the same compound?
A: The value was 14.56 ± 0.19 abs.

Q: What about the “The degree of maturity of the spermatogenic layer (standard units)” value (“The degree” for short) (male rats; [3]) of the same compound?
A: The value was 5.66 ± 0.01 standard units.

Q: And the “Total number of sperm cells (million)” value (male rats; [3])?
A: Its value is 146.00 ± 9.53 million.

Q: And the “growth of percentage of motile sperm forms in comparison with the control” value (male rats; Day 65)?
A: Its value is 32%.

Q: What about the “increase of productivity of spermatogenesis (TNS) in comparison with the control” value (male rats; Day 65) of the same compound?
A: Its value is 43%.

Q: What about the “Endocrine activity of testes” value (male rats; [4]) of the same compound?
A: The value was 4.31 ± 0.24.

Q: And the “Number of Leydig cells” value (male rats; [4])?
A: The value was 9.48 ± 0.21.

Q: And the “Number of motile sperm cells (%)” value (male rats; [4])?
A: The value was 79.81 ± 1.61 %.

Q: What about the “The average number of Sertoli cells (abs.)” value (male rats; [4]) of the same compound?
A: Its value is 2.30 ± 0.03 abs.

Q: And the “The average number of spermatogonia (abs.)” value (male rats; [4])?
A: The value was 13.07 ± 0.28 abs.

Q: What about the “The degree” value (male rats; [4]) of the same compound?
A: The value was 5.54 ± 0.00 standard units.

Q: And the “Total number of sperm cells (million)” value (male rats; [4])?
A: Its value is 145.20 ± 15.15 million.

Q: And the “increase of productivity of spermatogenesis (TNS) in comparison with the control” value (male rats; Day 90)?
A: Its value is 46%.

Q: And the Endocrine activity (male rats; [5])?
A: The Endocrine activity was 4.74 ± 4.04.

Q: And the “Number of motile sperm cells (%)” value (male rats; [5])?
A: Its value is 67.80 ± 1.14 %.

Q: What about the “The average number of Leydig cells” value (male rats; [5]) of the same compound?
A: The value was 9.93 ± 0.08.

Q: What about the “The average number of Sertoli cells (abs.)” value (male rats; [5]) of the same compound?
A: The value was 2.10 ± 0.06 abs.

Q: What about the “The average number of spermatogonia (abs.)” value (male rats; [5]) of the same compound?
A: The value was 14.43 ± 0.21 abs.

Q: What about the “The degree” value (male rats; [5]) of the same compound?
A: Its value is 5.57 ± 0.01 standard units.

Q: And the “Total number of sperm cells (million)” value (male rats; [5])?
A: Its value is 186.20 ± 12.74 million.

Q: And the “Serum glucose concentration” value (male C57BL/6 mice [2]; Day 28 (before Treamid, given Day 49-70))?
A: Its value is 5.36 ± 1.28 mmol/L.

Q: And the “Serum glucose concentration” value (male C57BL/6 mice [2]; Day 35 (before Treamid, given Day 49-70))?
A: The value was 4.21 ± 1.81 mmol/L.

Q: What about the “Serum glucose concentration” value (male C57BL/6 mice [2]; Day 42 (before Treamid, given Day 49-70)) of the same compound?
A: Its value is 12.75 ± 2.6 mmol/L.

Q: And the “Serum glucose concentration” value (male C57BL/6 mice [2]; Day 49, Treamid 10 mg/kg intragastrically Day 49-70)?
A: The value was 13.59 ± 2.41 mmol/L.

Q: And the “Serum glucose concentration (mmol/L)” value (male C57BL/6 mice [2]; Day 56, Treamid 10 mg/kg intragastrically Day 49-70)?
A: The value was 12.91 ± 4.48*• mmol/L.

Q: And the “Serum glucose concentration (mmol/L)” value (male C57BL/6 mice [2]; Day 63, Treamid 10 mg/kg intragastrically Day 49-70)?
A: The value was 14.47 ± 3.21*• mmol/L.

Q: And the “Free testosterone (pg/ml), serum” value (male C57BL/6 mice [2]; Day 70, Treamid 10 mg/kg)?
A: The value was 3.70 ± 0.46 pg/mL.

Q: What about the “Serum glucose concentration” value (male C57BL/6 mice [2]; Day 70, Treamid 10 mg/kg intragastrically Day 49-70) of the same compound?
A: Its value is 21.82 ± 5.83 mmol/L.

Q: And the “% of pyknotized cells in the islet of Langerhans” value (male C57BL/6 mice [2]; [6])?
A: Its value is 0.99 ± 0.06• %.

Q: And the “Area of an islet (pixel)” value (male C57BL/6 mice [2]; [6])?
A: Its value is 743399 ± 21134*• pixel.

Q: What about the “The number of islets in 30 vision fields” value (male C57BL/6 mice [2]; [6]) of the same compound?
A: The value was 7.4 ± 0.37•.
